Test results taken from patent US4187216A, “Dipeptide derivatives” (Hoffmann-La Roche Inc., priority 1976, dated 1980).
Where a name gives a salt, the structure may show the parent alone. Residues, ends and D or L forms follow the SMILES beside them. *: point of attachment. pNA = O=[N+]([O-])c1ccc(N*)cc1; Tos = Cc1ccc(S(=O)(=O)*)cc1; Hexanoyl = CCCCCC(=O)*; Propionyl = CCC(=O)*; Tfa = O=C(C(F)(F)F)*; NHPh = c1ccc(N*)cc1

target: T1, human granulocyte elastase (Homo sapiens, UniProt P08246); assay: in vitro elastase inhibition, test method of Visser and Blout, human granulocyte elastase as enzyme; assay type: biochemical; conditions: read-out: I50, concentration which gives 50% inhibition of the human granulocyte elastase
T1 sequence (P08246 30-267): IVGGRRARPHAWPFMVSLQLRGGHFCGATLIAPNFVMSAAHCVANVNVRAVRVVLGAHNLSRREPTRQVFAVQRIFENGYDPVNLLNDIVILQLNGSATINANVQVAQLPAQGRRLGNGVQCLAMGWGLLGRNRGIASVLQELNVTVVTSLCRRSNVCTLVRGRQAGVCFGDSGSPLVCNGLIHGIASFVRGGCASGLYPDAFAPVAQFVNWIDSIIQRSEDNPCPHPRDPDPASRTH
Description: Acta 268 (1972) 257, using human granulocyte elastase as the enzyme. The results obtained with representative dipeptide derivatives of formula I in this test are given in Table I hereinafter, the I50 being the concentration in millimoles per liter which gives 50% inhibition of the human granulocyte elastase: […]

SMILES	IC50
CCCCCC(=O)N[C@@H](C)C(=O)N1CCC[C@H]1C(=O)Nc1ccccc1 [(N-Hexanoyl-L-alanyl-L-proline) anilide, N-Hexanoyl-L-alanyl-L-proline anilide] (Hexanoyl-Ala-Pro-NHPh)	800 µM
Cc1ccc(S(=O)(=O)N[C@@H](C)C(=O)N2CCC[C@H]2C(=O)Nc2ccccc2)cc1 [N-(p-Toluenesulphonyl)-L-alanyl-L-proline anilide] (Tos-Ala-Pro-NHPh)	60 µM
C[C@H](NC(=O)OCc1ccccc1)C(=O)N1CCC[C@H]1C(=O)NC1CCCCC1 [N-Benzyloxycarbonyl-L-alanyl-L-proline cyclohexylamide]	1000 µM
CCCCCNC(=O)[C@@H]1CCCN1C(=O)[C@H](C)NC(=O)OCc1ccccc1 [N-Benzyloxycarbonyl-L-alanyl-L-proline n-pentylamide]	~5000 µM

Second part, the compound after the results:

IC50	SMILES
60 µM	C[C@H](NC(=O)CC12CC3CC(CC(C3)C1)C2)C(=O)N1CCC[C@H]1C(=O)Nc1ccccc1 [N-(1-Adamantylacetyl)-L-alanyl-L-proline anilide]
600 µM	C[C@H](NC(=O)C12CC3CC(CC(C3)C1)C2)C(=O)N1CCC[C@H]1C(=O)Nc1ccccc1 [N-(1-Adamantylcarbonyl)-L-alanyl-L-proline anilide]
7 µM	C[C@H](NS(=O)(=O)C12CC3CC(CC(C3)C1)C2)C(=O)N1CCC[C@H]1C(=O)Nc1ccccc1 [N-(1-Adamantylsulphonyl)-L-alanyl-L-proline anilide]

target: porcine pancreatic elastase (Sus scrofa, UniProt P00772); assay: in vitro elastase inhibition, test method of Visser and Blout, porcine pancreatic elastase as enzyme; assay type: biochemical; conditions: read-out: Ki, inhibitor constant
Sequence (P00772 27-266): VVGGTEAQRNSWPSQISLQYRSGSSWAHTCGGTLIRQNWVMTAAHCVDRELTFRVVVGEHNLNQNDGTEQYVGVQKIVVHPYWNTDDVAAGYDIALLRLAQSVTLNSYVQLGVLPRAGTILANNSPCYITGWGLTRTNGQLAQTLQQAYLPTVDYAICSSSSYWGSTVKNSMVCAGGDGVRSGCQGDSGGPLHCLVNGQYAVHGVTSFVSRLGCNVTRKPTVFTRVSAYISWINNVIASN

Ki	SMILES
40 µM	CCC(=O)N[C@@H](C)C(=O)N[C@@H](C)C(=O)Nc1ccccc1 [N-Propionyl-L-alanyl-L-alanine anilide] (Propionyl-Ala-Ala-NHPh)
26 µM	CCC(=O)N[C@@H](C)C(=O)N1CCC[C@H]1C(=O)Nc1ccc([N+](=O)[O-])cc1 [N-Propionyl-L-alanyl-L-proline 4-nitroanilide] (Propionyl-Ala-Pro-pNA)
40 µM	CCC(=O)N[C@@H](C)C(=O)N1CCC[C@H]1C(=O)Nc1ccccc1 [N-Propionyl-L-alanyl-L-proline anilide] (Propionyl-Ala-Pro-NHPh)
20 µM	CCC(=O)N[C@@H](C)C(=O)N1CCC[C@H]1C(=O)NC1CCCCC1 [N-Propionyl-L-alanyl-L-proline cyclohexylamide]
1.4 µM	C[C@H](NC(=O)C(F)(F)F)C(=O)N1CCC[C@H]1C(=O)Nc1ccccc1 [N-Trifluoroacetyl-L-alanyl-L-proline anilide] (Tfa-Ala-Pro-NHPh)
